According to patent US20200288710A1, “SUBSTITUTED SULPHONAMIDES FOR CONTROLLING ANIMAL PESTS” (BAYER CROPSCIENCE AKTIENGESELLSCHAFT, priority 2016, published 2020):

Experiments:
Format in all cases: in vivo
Myzus persicae [1] = assay: Myzus persicae spray test (Chinese cabbage leaf discs); conditions: foliar, 120 h, 500 g/ha, after 5-6 days, read-out: efficacy
In short: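 Formulated compound in acetone/dimethylformamide, diluted in water with 1000 ppm emulsifier, was sprayed onto Brassica pekinensis leaf discs carrying mixed-stage Myzus persicae. Percent mortality was read 5-6 days later (0% = no aphids killed, 100% = all killed).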

Meloidogyne incognita = Meloidogyne incognita test; conditions: 336 h, lettuce, after 14 days, read-out: nematicidal efficacy (formation of galls)
Protocol: Meloidogyne incognita Test Solvent: 125.0 parts by weight of acetone To produce a suitable active compound preparation, 1 part by weight of active compound is mixed with the stated amount of solvent and the concentrate is diluted with water to the desired concentration. Vessels are filled with sand, active compound solution, an egg/larvae suspension of the southern rootknot nematode (Meloidogyne incognita) and lettuce seeds. The lettuce seeds germinate and the plants develop. The galls develop on the roots. After 14 days, the nematicidal efficacy in % is determined by the formation of galls. 100% means that no galls were found; 0% means that the number of galls on the treated plants corresponds to the untreated control.

Myzus persicae [2] = assay: Myzus persicae oral test; conditions: 120 h, 20 ppm, oral uptake, after 5 days, read-out: efficacy
In short: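 Aphids of mixed ages imbibe, through parafilm, compound solution (acetone stock, water-diluted) combined with sugar-supplemented IPL41 medium to 200 μl. Efficacy read at day 5 as percent killed, 0% meaning no deaths.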

Row | SMILES | pest or weed control at 500 g/ha (Myzus persicae [1]) [%] | pest or weed control at 20 ppm (Meloidogyne incognita) [%] | pest or weed control at 20 ppm (Myzus persicae [2]) [%]
1 | Cc1ccccc1S(=O)(=O)NC(=O)c1cc(C)n(-c2c(F)cccc2F)n1 [Example 139] | 90 | 90 | 
2 | COc1cccc(C)c1S(=O)(=O)NC(=O)c1cn(C)c(-c2c(F)cccc2F)n1 [Example 365] | 100 | 90 | 
3 | Cn1cc(C(=O)NS(=O)(=O)c2ccc(C(F)(F)F)cc2Br)nc1-c1c(F)cccc1F [Example 442] | 90 | 90 | 
4 | Cc1ccccc1S(=O)(=O)NC(=O)c1cc(C)n(-c2ccccc2Cl)n1 [Example 272] | 100 | 100 | 100
5 | COc1cc(C(=O)NS(=O)(=O)c2ccccc2Br)nn1-c1ccccc1Cl [Example 277] | 100 | 90 | 100
6 | Cc1ccccc1-c1nc(C(=O)NS(=O)(=O)c2ccccc2C)cn1C [Example 29] | 100 | 90 | 100
7 | Cn1cc(C(=O)NS(=O)(=O)c2ccccc2OC(F)(F)F)nc1-c1c(F)cccc1F [Example 118] | 100 | 90 | 100
8 | CCc1ccccc1S(=O)(=O)NC(=O)c1cn(C)c(-c2cccc(Cl)c2Cl)n1 [Example 553] | 100 | 90 | 100
9 | CCc1[nH]c(-c2ccc(F)cc2F)nc1C(=O)NS(=O)(=O)C(C)C [Example 123] | 90 | 90 | 
10 | Cn1cc(C(=O)NS(=O)(=O)c2ccsc2)nc1-c1c(F)cccc1F [Example 357] | 90 | 90 | 
11 | Cn1cc(C(=O)NS(=O)(=O)c2ccccc2)nc1-c1c(F)cccc1F [Example 48] | 90 | 90 | 
12 | Cn1cc(C(=O)NS(=O)(=O)c2ccc(Cl)cc2)nc1-c1ccccc1Cl [Example 230] | 100 | 100 | 
13 | Cn1cc(C(=O)NS(=O)(=O)c2cccc(F)c2Cl)nc1-c1c(F)cccc1F [Example 321] | 100 | 90 | 
14 | Cn1cc(C(=O)NS(=O)(=O)c2ccc(C(F)(F)F)cc2Cl)nc1-c1c(F)cccc1F [Example 441] | 90 | 100 | 
15 | COc1ccccc1S(=O)(=O)NC(=O)c1nc(-c2c(F)cccc2F)c(C)n1C [Example 310] | 90 | 100 | 
16 | Cc1ccccc1S(=O)(=O)NC(=O)c1cn(C)c(-c2c(F)cc(F)cc2F)n1 [Example 6] | 100 | 100 | 
17 | CCc1[nH]c(-c2ccc(F)c(F)c2)nc1C(=O)NS(=O)(=O)c1ccccc1C [Example 207] | 90 | 90 | 
18 | CCOc1cccc(CC)c1S(=O)(=O)NC(=O)c1cn(C)c(-c2c(F)cccc2F)n1 [Example 335] | 90 | 90 | 
19 | CC(C)S(=O)(=O)NC(=O)c1cn(C)c(-c2ccccc2Cl)n1 [Example 193] | 100 | 90 | 
20 | CCc1c(C(=O)NS(=O)(=O)c2ccccc2Cl)nc(-c2c(F)cccc2F)n1C [Example 197] | 90 | 100 | 
21 | COc1ccc(S(=O)(=O)NC(=O)c2cn(C)c(-c3ccccc3Cl)n2)cc1 [Example 34] | 90 | 100 | 
22 | CC(C)c1cccc(-c2nc(C(=O)NS(=O)(=O)c3ccccc3Br)cn2C)c1 [Example 330] |  | 90 | 90
23 | Cc1ccc(S(=O)(=O)NC(=O)c2cn(C)c(-c3c(F)cccc3F)n2)cc1 [Example 175] | 90 | 100 | 
24 | CC(C)Sc1cccc(Cl)c1S(=O)(=O)NC(=O)c1cn(C)c(-c2c(F)cccc2F)n1 [Example 386] |  | 90 | 100
25 | Cn1cc(C(=O)NS(=O)(=O)c2ccc(Cl)c(Cl)c2)nc1-c1c(F)cccc1F [Example 187] |  | 90 | 100
26 | Cn1cc(C(=O)NS(=O)(=O)c2cccc(Cl)c2)nc1-c1c(F)cc(F)cc1F [Example 8] | 90 | 100 | 
27 | Cc1ccccc1S(=O)(=O)NC(=O)c1cn(C)c(-c2ccccc2[N+](=O)[O-])n1 [Example 525] |  | 100 | 100

Row | SMILES | pest or weed control at 500 g/ha (Myzus persicae [1]) [%] | pest or weed control at 20 ppm (Meloidogyne incognita) [%] | pest or weed control at 20 ppm (Myzus persicae [2]) [%]
28 | CC(C)c1ccccc1-c1nc(C(=O)NS(=O)(=O)c2ccccc2Cl)cn1C [Example 209] |  | 90 | 90
29 | Cc1ccccc1S(=O)(=O)NC(=O)c1cn(C)c(-c2cccc3c2OC(F)(F)O3)n1 [Example 542] | 90 | 100 | 
30 | COc1ccc(S(=O)(=O)NC(=O)c2cn(C)c(-c3c(F)cccc3F)n2)cc1 [Example 47] | 90 | 100 | 
31 | COCCS(=O)(=O)NC(=O)c1cn(C)c(-c2c(F)cccc2F)n1 [Example 141] |  | 90 | 90
32 | Cn1cc(C(=O)NS(=O)(=O)c2ccccc2Cl)nc1-c1ccccc1-c1ccccc1 [Example 532] |  | 90 | 100
33 | Cc1[nH]c(-c2c(F)cccc2F)nc1C(=O)NS(=O)(=O)c1ccccc1Cl [Example 192] |  | 90 | 100
34 | Cn1cc(C(=O)NS(=O)(=O)c2ccc(Cl)cc2)nc1-c1c(F)cc(F)cc1F [Example 9] | 90 | 100 | 
35 | CCc1[nH]c(-c2cccc(Br)c2)nc1C(=O)NS(=O)(=O)c1ccccc1C [Example 134] |  | 90 | 100
36 | CCc1cccc(OC)c1S(=O)(=O)NC(=O)c1cn(C)c(-c2c(F)cccc2F)n1 [Example 200] | 100 | 100 | 
37 | CCOc1c(Cl)cccc1S(=O)(=O)NC(=O)c1cn(C)c(-c2c(F)cccc2F)n1 [Example 314] |  | 90 | 100
38 | CCn1cc(C(=O)NS(=O)(=O)c2ccccc2C(F)(F)F)nc1-c1ccccc1Cl [Example 21] |  | 90 | 100
39 | CCn1cc(C(=O)NS(C)(=O)=O)nc1-c1ccccc1Cl [Example 79] | 100 | 90 | 
40 | Cn1cc(C(=O)NS(=O)(=O)c2ccc(Br)s2)nc1-c1c(F)cccc1F [Example 353] |  | 90 | 90
41 | CCc1c(C(=O)NS(=O)(=O)c2ccccc2C)nc(-c2c(F)cccc2F)n1C [Example 199] |  | 90 | 100
42 | CC(C)CS(=O)(=O)NC(=O)c1cn(C)c(-c2c(F)cccc2F)n1 [Example 142] | 100 | 90 | 
43 | CCS(=O)(=O)NC(=O)c1cn(C)c(-c2ccccc2Cl)n1 [Example 64] | 90 | 90 | 
44 | CCc1ccccc1-c1nc(C(=O)NS(=O)(=O)c2ccccc2Cl)cn1C [Example 496] |  | 100 | 90
45 | Cc1[nH]c(-c2cccc(Cl)c2)nc1C(=O)NS(=O)(=O)c1ccccc1Cl [Example 233] |  | 90 | 100
46 | O=C(NS(=O)(=O)C1CC1)c1cc(-c2ncccc2Cl)n(-c2ccccc2Cl)n1 [Example 456] |  | 100 | 100
47 | Cc1cccc(C)c1-c1nc(C(=O)NS(=O)(=O)c2ccccc2Cl)cn1C [Example 477] |  | 90 | 90
48 | CCOc1ccccc1S(=O)(=O)NC(=O)c1cn(C)c(-c2c(F)cccc2F)n1 [Example 16] | 90 | 90 | 
49 | Cc1[nH]c(-c2ccccc2Cl)nc1C(=O)NS(=O)(=O)C(C)C [Example 625] |  | 100 | 90
50 | CC(C)CS(=O)(=O)NC(=O)c1cn(C)c(-c2c(F)cccc2Cl)n1 [Example 325] |  | 90 | 100
51 | COc1ccc(Cl)c(S(=O)(=O)NC(=O)c2cn(C)c(-c3ccccc3Cl)n2)c1 [Example 228] | 100 | 100 | 
52 | Cn1cc(C(=O)NS(=O)(=O)c2cc(Cl)sc2Cl)nc1-c1c(F)cccc1F [Example 356] | 90 | 90 | 
53 | COc1cc(C(=O)NS(=O)(=O)c2ccccc2C)nn1-c1ccccc1Cl [Example 276] |  | 100 | 100
54 | CC(C)S(=O)(=O)NC(=O)c1cn(C)c(-c2c(F)cccc2Cl)n1 [Example 149] | 90 | 90 | 
